Results as given in patent US10668048B2, “Compounds for inhibiting bacterial growth via phosphatidylglycerol binding” (Wichita State University, priority 2016, dated 2020).

Columns and labels:
[1] = tested on: E. coli strain MC4100; experiment: IPTG-induced PapD overexpression, gel electrophoresis; format: cell-based; conditions: IPTG and 5 μM
Excerpt: The E. coli strain MC4100 will produce the pili chaperone PapD, a periplasmic protein, when induced by IPTG. […] The left panel represents the periplasmic fraction with lanes running left to right: ladder, NR, C, R, all with no IPTG; NR+IPTG, C+IPTG, R+IPTG (negative control was porphyrin A) or in the cytosol represented in the right panel with lanes running from left to right: NR, C, R, all with no IPTG; ladder, NR+IPTG, C+IPTG, R+IPTG (negative control was porphyrin A). (NR=no liptin, C=control, R=liptin). IPTG gets into the cytoplasm most efficiently via uphil symport via the plasma membrane protein lac permease when the plasma membrane is fully polarized.

[2] = tested on: S. aureus (33186); experiment: Bactericidal (MBC) experiment, LB plates; format: cell-based; conditions: 5 μM, overnight culture then LB plate 16 hours
Description: (§1) Cultures (5 mL) starting at 0.001 OD were grown overnight at 37° C. with different concentrations of […], and then a sample of culture was added to an LB plate and then it was incubated for 16 hours at 37° C. […] All experiments were done in triplicate, including control.

[3] = tested on: E. feucalis (29213); experiment: Bactericidal (MBC) experiment, LB plates; format: cell-based; conditions: overnight culture then LB plate 16 hours
Description: as §1

[4] = tested on: E. coli (MC4100); experiment: Bactericidal (MBC) experiment, LB plates; format: cell-based; conditions: overnight culture then LB plate 16 hours
Description: as §1

[5] = tested on: S. aureus (33186); experiment: Serial passage resistance experiment; format: cell-based; conditions: 0.5 MIC, LB, 37° C., 80-100 generations
Excerpt: (§2) Triplicate serial passage experiments were undertaken with E. coli (MC4100), S. aureus (33186) and E. feucalis (29213).

[6] = tested on: E. feucalis (29213); experiment: Serial passage resistance experiment; format: cell-based; conditions: 0.5 MIC, LB, 37° C., 80-100 generations
Excerpt: as §2

[7] = tested on: E. coli (MC4100); experiment: Serial passage resistance experiment; format: cell-based; conditions: 0.5 MIC, LB, 37° C., 80-100 generations
Excerpt: as §2

[8] = Carboxyfluorescein efflux from pure PG vesicles; format: biochemical; conditions: room temperature, after three hours
Description: Liptin/bilayer interactions were evaluated using conventional efflux measurements. These experiments make use of the self-quenching fluorescence of carboxyfluorescein. At relatively high concentrations (ca. 50 mM) the fluorescence from carboxyfluorescein is diminished by approximately 70% due to intermolecular interactions.
To perform efflux experiments vesicles were prepared by rehydrating a film of pure DPPG with a 50 mM solution of carboxyfluorescein in buffer. The solution was then extruded through a polycarbonate membrane with 200 nm pore size. […] Under these conditions, as the dye leaves the vesicles by efflux, fluorescence intensity increases. Monitoring the fluorescence intensity over time provides a measure of the rate at which dye crosses the membrane and an indication of the “leakiness” of the vesicle bilayer. Efflux can be expressed as % Efflux by the following expression:
[formula] where F0 is the fluorescence intensity corresponding to the initial sample when efflux first begins and F∞ is the intensity after efflux is complete and is determined by rupturing the vesicles by the addition of a small amount of concentrated detergent. F(t) is the fluorescence intensity measured as the efflux occurs. […]

[9] = Liptin-PG binding in solution (ITC and/or 1H NMR titration); conditions: ITC; 50% DMSO, 45% CHCl3, 5% CH3OH
Description: The lipid binding ability of liptins 1-3 (FIG. 2A) have been investigated in solution using isothermal titration calorimetry (ITC) and/or ^1H NMR. Stoichiometry of binding was accomplished with Job plots using ^1H NMR. […] The use of organic solvents allowed the determination of binding motif using ^1H NMR.
Liptins 1b, 1e, 2c, 2d, 3a, 3c in DMF/5% CHCl3; 3e in 50% DMSO, 45% CHCl3, 5% CH3OH.
Liptins 1h and 1i 40% DMSO, 60% CHCl3, 3f in 20% DMSO, 80% CHCl3.

[10] = Carboxy-fluorescein efflux from PE/PG liposomes; format: biochemical; conditions: 2.5 μM, after 90 minutes
Description: Liptin 3e causes membrane leakage when it binds to PG in a membrane, as evidenced by the efflux of fluorescent carboxy-fluorescein from model lipid vesicles of 80% PE/20% PG (the approximate lipid content models E. coli's plasma membrane), shown in FIG. 19A. […] Not shown is the effect of the bee AMP melittin, which forms pores in membranes at 2.5 μM concentrations. Upon addition of melittin within a few minutes of addition the efflux is 100%.
Liptins 3f-h also cause membrane leakage when they bind to PG in a membrane, as evidenced by the efflux of fluorescent carboxy-fluorescein from model lipid vesicles of 80% PE/20% PG (the lipid content models E. coli's plasma membrane), shown in FIG. 19B. The circle bottom line data set is the control without liptin. […] Y-axis: % Efflux; X-axis: Time in minutes.
This greater efflux activity may well translate to lower MICs of these two compounds relative to liptin 3e, and may well change the liptin activity from bacteriostatic to bactericidal. […]

In the case of `NCC(=O)Nc1ccccc1-c1c2nc(c(-c3ccccc3NC(=O)CN)c3ccc([nH]3)c(-c3ccccc3NC(=O)CN)c3nc(c(-c4ccccc4NC(=O)CN)c4ccc1[nH]4)C=C3)C=C2.O=C(O)C(F)(F)F.O=C(O)C(F)(F)F.O=C(O)C(F)(F)F.O=C(O)C(F)(F)F` [Liptin 3e], the “PapD in periplasmic space or cytosol” value [1] is reported as “no PapD was found”, the bactericidal effect [2] is reported as “strong bactericidal effects” and the “MBC (concentration with low or no growth on LB plates)” value [3] is reported as “much more than four times the MIC concentrations”. The “MBC (concentration with low or no growth on LB plates)” value [4] was “much more than four times the MIC concentrations”, the “MIC after 15 serial passages” value [5] was “no different than initial MICs” and the “MIC after 15 serial passages” value [6] was “no different than initial MICs”. For the same molecule, the “MIC after 15 serial passages” value [7] was “no different than initial MICs”, the “% Efflux of carboxyfluorescein” value [8] was 5% and the Ka [9] was 2800 M⁻¹. The “dye leakage (efflux)” value [10] was 5-10%.
